Laboratory results published in ChEMBL document CHEMBL2439979 (Bioorg Med Chem Lett, 2013).

Key:
[1] = target: T1, Muscarinic acetylcholine receptor M5 (Homo sapiens, UniProt P08912); test: Displacement of [3H]NMS from human muscarinic M5 receptor expressed in CHO cells
T1 sequence (P08912 whole entry): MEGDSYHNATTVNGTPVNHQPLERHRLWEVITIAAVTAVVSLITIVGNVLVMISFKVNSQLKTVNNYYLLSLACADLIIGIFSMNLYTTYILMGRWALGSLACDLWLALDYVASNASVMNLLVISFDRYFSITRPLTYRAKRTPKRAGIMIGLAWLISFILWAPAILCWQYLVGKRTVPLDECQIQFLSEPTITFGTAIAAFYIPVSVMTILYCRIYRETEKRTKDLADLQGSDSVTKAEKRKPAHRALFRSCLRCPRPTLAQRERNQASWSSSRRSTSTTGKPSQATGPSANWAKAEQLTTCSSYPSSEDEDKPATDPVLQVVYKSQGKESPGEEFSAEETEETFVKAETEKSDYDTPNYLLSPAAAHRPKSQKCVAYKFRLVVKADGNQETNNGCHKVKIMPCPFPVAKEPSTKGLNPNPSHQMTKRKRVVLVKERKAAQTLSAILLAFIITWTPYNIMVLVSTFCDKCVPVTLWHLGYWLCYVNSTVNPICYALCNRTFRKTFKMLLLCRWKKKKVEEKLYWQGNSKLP

[2] = target: Neuronal acetylcholine receptor subunit alpha-7 (Rattus norvegicus, UniProt Q05941); test: Displacement of [125I]-alpha-bungarotoxin from alpha7 nAChR in rat hippocampus membranes; assay type: cell membranes, Membrane
Neuronal acetylcholine receptor subunit alpha-7 (Rattus norvegicus, UniProt Q05941), sequence (Q05941 whole entry): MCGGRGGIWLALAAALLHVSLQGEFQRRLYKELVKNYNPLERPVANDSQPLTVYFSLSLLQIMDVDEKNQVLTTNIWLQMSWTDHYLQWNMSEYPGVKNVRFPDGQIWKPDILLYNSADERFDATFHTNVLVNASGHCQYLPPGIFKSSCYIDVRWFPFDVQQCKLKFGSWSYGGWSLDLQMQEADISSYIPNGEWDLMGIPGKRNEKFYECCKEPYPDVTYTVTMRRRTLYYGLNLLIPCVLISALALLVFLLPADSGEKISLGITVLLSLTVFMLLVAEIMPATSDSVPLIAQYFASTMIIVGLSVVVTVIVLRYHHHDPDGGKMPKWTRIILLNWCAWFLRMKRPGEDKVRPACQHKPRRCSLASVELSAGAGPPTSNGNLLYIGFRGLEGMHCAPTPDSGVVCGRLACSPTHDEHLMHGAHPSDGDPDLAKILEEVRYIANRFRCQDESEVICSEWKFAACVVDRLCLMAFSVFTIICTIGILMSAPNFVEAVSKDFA

[3] = target: T2, Muscarinic acetylcholine receptor M4 (Homo sapiens, UniProt P08173); test: Displacement of [3H]NMS from human muscarinic M4 receptor expressed in CHO cells
T2 sequence (P08173 whole entry): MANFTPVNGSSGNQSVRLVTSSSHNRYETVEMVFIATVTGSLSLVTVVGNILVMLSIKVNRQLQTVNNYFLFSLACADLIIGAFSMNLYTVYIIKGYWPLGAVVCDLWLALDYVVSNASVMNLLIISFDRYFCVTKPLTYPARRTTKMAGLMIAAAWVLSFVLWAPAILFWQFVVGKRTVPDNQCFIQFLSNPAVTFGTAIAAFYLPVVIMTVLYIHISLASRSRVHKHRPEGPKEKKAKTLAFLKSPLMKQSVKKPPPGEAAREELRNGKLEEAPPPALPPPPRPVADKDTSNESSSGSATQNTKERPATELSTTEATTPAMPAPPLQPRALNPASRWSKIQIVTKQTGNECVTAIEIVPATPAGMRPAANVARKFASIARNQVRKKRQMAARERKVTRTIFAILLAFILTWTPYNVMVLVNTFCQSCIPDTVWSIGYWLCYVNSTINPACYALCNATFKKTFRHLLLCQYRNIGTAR

[4] = target: Muscarinic acetylcholine receptor M3 (Homo sapiens, UniProt P20309); test: Displacement of [3H]NMS from human muscarinic M3 receptor expressed in CHO cells
Muscarinic acetylcholine receptor M3, sequence (P20309 whole entry): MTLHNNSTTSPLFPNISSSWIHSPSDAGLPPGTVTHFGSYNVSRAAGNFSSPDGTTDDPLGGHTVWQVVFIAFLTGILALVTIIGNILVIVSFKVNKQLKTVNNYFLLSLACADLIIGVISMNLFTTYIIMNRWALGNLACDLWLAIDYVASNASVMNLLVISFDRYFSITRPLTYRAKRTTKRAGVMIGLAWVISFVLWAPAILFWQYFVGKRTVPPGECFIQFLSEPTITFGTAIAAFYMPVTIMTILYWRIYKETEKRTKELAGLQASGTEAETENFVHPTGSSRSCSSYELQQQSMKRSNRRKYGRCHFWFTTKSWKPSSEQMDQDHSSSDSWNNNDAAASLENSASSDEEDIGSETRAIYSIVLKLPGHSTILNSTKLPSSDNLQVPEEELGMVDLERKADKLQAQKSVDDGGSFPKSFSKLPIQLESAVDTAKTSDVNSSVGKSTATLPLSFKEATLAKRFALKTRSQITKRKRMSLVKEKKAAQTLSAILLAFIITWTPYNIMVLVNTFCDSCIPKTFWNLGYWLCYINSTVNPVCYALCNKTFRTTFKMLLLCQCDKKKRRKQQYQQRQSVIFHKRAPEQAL

[5] = target: Neuronal acetylcholine receptor; alpha4/beta2 (Rattus norvegicus, UniProt P09483+P12390); test: Displacement of [3H]-epibatidine from alpha4beta2 nAChR in rat cortex hippocampus; assay type: tissue-based
Neuronal acetylcholine receptor; alpha4/beta2 (Rattus norvegicus, UniProt P09483+P12390), sequence (P09483 whole entry): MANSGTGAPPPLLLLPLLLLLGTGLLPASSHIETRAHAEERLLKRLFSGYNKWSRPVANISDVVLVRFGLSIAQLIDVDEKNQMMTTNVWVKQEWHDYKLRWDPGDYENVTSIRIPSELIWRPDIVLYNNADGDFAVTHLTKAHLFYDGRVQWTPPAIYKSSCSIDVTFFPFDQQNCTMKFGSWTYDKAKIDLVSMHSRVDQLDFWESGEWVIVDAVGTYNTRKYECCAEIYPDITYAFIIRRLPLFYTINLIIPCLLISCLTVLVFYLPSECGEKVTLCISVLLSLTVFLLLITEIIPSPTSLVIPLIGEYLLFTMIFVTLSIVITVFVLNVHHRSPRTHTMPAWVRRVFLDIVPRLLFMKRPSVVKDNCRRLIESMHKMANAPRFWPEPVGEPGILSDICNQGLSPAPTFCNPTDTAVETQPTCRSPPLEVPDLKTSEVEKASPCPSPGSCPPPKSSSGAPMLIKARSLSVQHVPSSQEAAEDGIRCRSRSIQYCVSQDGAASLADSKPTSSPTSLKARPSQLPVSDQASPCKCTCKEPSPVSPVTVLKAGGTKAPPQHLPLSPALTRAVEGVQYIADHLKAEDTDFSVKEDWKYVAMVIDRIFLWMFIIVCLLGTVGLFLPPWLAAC
Neuronal acetylcholine receptor; alpha4/beta2 (Rattus norvegicus, UniProt P09483+P12390), sequence (P12390 whole entry): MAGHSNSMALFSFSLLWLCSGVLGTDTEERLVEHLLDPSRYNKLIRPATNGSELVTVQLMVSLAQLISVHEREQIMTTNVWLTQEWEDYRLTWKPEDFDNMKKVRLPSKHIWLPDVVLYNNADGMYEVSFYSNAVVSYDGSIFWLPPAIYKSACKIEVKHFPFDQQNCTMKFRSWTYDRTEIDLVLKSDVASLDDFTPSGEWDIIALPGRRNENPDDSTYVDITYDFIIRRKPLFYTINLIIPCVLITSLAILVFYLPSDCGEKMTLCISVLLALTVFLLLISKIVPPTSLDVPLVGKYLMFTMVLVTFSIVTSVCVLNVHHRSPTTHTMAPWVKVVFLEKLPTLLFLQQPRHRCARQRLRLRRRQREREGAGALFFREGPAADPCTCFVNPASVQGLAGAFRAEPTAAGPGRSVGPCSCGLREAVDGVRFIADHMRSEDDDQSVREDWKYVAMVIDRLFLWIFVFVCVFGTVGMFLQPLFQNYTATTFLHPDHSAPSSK

[6] = target: T3, Muscarinic acetylcholine receptor M1 (Homo sapiens, UniProt P11229); test: Displacement of [3H]NMS from human muscarinic M1 receptor expressed in CHO cells
T3 sequence (P11229 whole entry): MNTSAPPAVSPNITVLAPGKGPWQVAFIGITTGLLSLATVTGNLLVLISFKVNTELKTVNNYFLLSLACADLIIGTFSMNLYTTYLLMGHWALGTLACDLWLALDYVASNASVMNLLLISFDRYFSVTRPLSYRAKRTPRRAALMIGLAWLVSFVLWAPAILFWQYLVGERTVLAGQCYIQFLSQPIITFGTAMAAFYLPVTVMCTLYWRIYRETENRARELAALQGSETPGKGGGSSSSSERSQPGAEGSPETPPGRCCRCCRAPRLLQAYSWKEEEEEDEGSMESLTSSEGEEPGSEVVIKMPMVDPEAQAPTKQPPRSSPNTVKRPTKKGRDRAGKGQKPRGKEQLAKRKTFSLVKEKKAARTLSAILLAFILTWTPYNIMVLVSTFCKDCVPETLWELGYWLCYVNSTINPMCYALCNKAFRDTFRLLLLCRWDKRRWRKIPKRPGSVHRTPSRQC

[7] = target: T4, Muscarinic acetylcholine receptor M2 (Homo sapiens, UniProt P08172); test: Displacement of [3H]NMS from human muscarinic M2 receptor expressed in CHO cells
T4 sequence (P08172 whole entry): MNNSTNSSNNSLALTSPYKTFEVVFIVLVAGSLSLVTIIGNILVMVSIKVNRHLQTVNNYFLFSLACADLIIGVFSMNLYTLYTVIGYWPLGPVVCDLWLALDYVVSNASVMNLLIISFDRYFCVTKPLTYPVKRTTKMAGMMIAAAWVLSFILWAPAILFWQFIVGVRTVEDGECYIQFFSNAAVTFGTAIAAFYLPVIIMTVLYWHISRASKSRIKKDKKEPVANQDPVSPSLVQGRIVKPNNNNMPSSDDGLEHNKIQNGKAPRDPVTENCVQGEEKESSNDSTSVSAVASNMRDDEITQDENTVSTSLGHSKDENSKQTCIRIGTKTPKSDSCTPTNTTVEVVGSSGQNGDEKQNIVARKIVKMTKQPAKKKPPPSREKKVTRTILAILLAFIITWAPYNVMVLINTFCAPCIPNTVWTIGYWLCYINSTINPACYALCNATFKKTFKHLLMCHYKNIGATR

[8] = target: Muscarinic acetylcholine receptor; test: Binding affinity to muscarinic M1/M5 receptor (unknown origin); assay type: protein assay, Homo sapiens
[9] = target: Neuronal acetylcholine receptor; alpha4/beta2 (Homo sapiens, UniProt P17787+P43681); test: Binding affinity to alpha4beta2 nAChR (unknown origin); assay type: protein-complex assay
Neuronal acetylcholine receptor; alpha4/beta2 (Homo sapiens, UniProt P17787+P43681), sequence (P17787 whole entry): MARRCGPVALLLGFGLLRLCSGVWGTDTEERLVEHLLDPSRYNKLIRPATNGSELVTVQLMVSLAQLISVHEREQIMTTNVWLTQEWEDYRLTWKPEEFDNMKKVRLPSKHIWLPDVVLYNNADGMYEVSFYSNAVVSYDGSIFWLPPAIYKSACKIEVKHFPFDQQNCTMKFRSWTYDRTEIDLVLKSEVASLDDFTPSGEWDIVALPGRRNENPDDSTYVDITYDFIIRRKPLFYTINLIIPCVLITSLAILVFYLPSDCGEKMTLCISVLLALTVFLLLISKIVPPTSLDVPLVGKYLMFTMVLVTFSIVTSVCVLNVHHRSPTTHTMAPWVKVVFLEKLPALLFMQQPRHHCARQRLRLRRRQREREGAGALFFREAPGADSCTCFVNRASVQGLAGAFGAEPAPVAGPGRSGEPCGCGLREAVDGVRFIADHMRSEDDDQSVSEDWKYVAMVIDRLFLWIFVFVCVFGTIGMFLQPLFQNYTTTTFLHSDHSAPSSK
Neuronal acetylcholine receptor; alpha4/beta2 (Homo sapiens, UniProt P17787+P43681), sequence (P43681 whole entry): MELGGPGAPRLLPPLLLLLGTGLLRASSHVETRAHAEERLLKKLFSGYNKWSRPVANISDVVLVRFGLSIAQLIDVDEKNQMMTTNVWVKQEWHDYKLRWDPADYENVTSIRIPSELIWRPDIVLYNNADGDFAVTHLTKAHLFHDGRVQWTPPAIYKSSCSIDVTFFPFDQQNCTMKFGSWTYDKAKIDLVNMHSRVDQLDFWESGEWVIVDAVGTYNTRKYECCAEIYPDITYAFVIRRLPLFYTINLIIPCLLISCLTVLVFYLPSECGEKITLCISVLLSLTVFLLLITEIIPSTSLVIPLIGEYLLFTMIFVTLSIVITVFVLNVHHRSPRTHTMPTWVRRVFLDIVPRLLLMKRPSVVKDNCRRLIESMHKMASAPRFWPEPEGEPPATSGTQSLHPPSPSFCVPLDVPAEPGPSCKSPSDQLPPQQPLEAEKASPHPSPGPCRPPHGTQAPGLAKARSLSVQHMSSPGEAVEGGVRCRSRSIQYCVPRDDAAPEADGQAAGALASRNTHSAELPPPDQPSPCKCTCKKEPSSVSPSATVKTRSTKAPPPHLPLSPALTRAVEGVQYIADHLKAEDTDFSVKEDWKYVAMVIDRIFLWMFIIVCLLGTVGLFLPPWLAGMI

[10] = target: Neuronal acetylcholine receptor subunit alpha-7 (Homo sapiens, UniProt P36544); test: Binding affinity to alpha7 nAChR (unknown origin)
Neuronal acetylcholine receptor subunit alpha-7 (Homo sapiens, UniProt P36544), sequence (P36544 whole entry): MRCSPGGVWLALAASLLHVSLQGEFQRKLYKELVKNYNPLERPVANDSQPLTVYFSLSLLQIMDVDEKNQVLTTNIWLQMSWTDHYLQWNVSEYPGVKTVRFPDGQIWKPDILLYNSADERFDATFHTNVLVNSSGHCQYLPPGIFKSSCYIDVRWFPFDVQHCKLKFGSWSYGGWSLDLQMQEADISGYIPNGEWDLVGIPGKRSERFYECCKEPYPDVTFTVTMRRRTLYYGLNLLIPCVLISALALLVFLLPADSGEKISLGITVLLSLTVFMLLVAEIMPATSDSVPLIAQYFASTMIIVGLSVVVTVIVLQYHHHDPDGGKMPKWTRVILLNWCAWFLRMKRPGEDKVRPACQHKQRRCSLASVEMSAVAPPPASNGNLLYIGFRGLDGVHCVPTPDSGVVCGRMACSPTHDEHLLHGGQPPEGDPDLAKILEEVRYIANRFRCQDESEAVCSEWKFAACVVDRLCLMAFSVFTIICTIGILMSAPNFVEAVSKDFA

For `CN(C)C[C@H]1CN(C)C(=O)O1`, the Ki [1] was greater than 100 µM, the Ki [2] was 158 µM and the Ki [3] was greater than 100 µM. The Ki [4] was greater than 100 µM, the Ki [5] was 2.2 µM and the Ki [6] was greater than 100 µM. For the same molecule, the Ki [7] was greater than 100 µM.

`C[N+](C)(C)C[C@@H]1CNC(=O)O1` gave a Ki [1] greater than 100 µM, a Ki [2] of 45 µM and a Ki [3] greater than 100 µM. It also gave a Ki [4] greater than 100 µM, a Ki [5] of 0.429 µM and a Ki [6] greater than 100 µM. The Ki [7] was greater than 100 µM.

In the case of `CN1CCC[C@H]1[C@H]1CNC(=O)O1`, the Ki [1] is reported as greater than 100 µM, the Ki [3] is reported as greater than 100 µM and the Ki [4] is reported as greater than 100 µM. It also gave a Ki [6] greater than 100 µM and a Ki [7] greater than 100 µM.

Work on `CN1CCC[C@H]1[C@@H]1COC(=O)N1` yielded a Ki [1] greater than 100 µM, a Ki [2] of 64 µM and a Ki [3] greater than 100 µM. It also gave a Ki [4] greater than 100 µM, a Ki [5] of 9 µM and a Ki [6] greater than 100 µM. The Ki [7] was greater than 100 µM.

For `C[N+](C)(C)C[C@H]1CNC(=O)O1`, the Ki [1] was greater than 100 µM, the Ki [2] was 47 µM and the Ki [3] was greater than 100 µM. The Ki [4] was greater than 100 µM, the Ki [5] was 0.396 µM and the Ki [6] was greater than 100 µM. It also gave a Ki [7] greater than 100 µM.

`CN1C[C@H](C[N+](C)(C)C)OC1=O` gave a Ki [1] greater than 100 µM, a Ki [2] of 18.6 µM and a Ki [3] greater than 100 µM. It also gave a Ki [4] greater than 100 µM, a Ki [5] of 3.1 µM and a Ki [6] greater than 100 µM. For the same molecule, the Ki [7] was greater than 100 µM.

With `CN1CCC[C@H]1COC(N)=O` the Ki [1] was greater than 100 µM, the Ki [2] was 78 µM and the Ki [3] was greater than 100 µM. The Ki [4] was greater than 100 µM, the Ki [5] was 0.693 µM and the Ki [6] was greater than 100 µM. The Ki [7] was greater than 100 µM.

`CN(C)C(=O)OCC[N+](C)(C)C` showed a Ki [8] of 1.2 µM and a Ki [9] of 0.02 µM.

Work on `C[N+]1(C)CCC[C@H]1COC(N)=O` yielded a Ki [1] greater than 100 µM, a Ki [2] of 1.8 µM and a Ki [3] greater than 100 µM. It also gave a Ki [4] greater than 100 µM, a Ki [5] of 1.06 µM and a Ki [6] greater than 100 µM. The Ki [7] was greater than 100 µM.

Work on `CN1C[C@@H](C[N+](C)(C)C)OC1=O` yielded a Ki [1] greater than 100 µM, a Ki [2] of 30 µM and a Ki [3] greater than 100 µM. It also gave a Ki [4] greater than 100 µM, a Ki [5] of 3.61 µM and a Ki [6] greater than 100 µM. For the same molecule, the Ki [7] was greater than 100 µM.

`CC(C[N+](C)(C)C)OC(N)=O` (stereo not drawn) [BETHANECHOL] gave a Ki [8] of 0.097 µM.

In the case of `CN(C)C[C@H]1CNC(=O)O1`, the Ki [1] is reported as greater than 100 µM, the Ki [2] is reported as 41 µM and the Ki [3] is reported as greater than 100 µM. For the same molecule, the Ki [4] was greater than 100 µM, the Ki [5] was 0.45 µM and the Ki [6] was greater than 100 µM. It also gave a Ki [7] greater than 100 µM.

`CN1CCC[C@H]1[C@@H]1CNC(=O)O1` showed a Ki [1] greater than 100 µM, a Ki [3] greater than 100 µM and a Ki [4] greater than 100 µM. For the same molecule, the Ki [6] was greater than 100 µM and the Ki [7] was greater than 100 µM.

For `CN(C)C[C@@H]1CN(C)C(=O)O1`, the Ki [1] was greater than 100 µM, the Ki [2] was 449 µM and the Ki [3] was greater than 100 µM. The Ki [4] was greater than 100 µM, the Ki [5] was 2.66 µM and the Ki [6] was greater than 100 µM. It also gave a Ki [7] greater than 100 µM.

`CN(C)CCOC(=O)N(C)C` [2-(DIMETHYLAMINO)ETHYL DIMETHYLCARBAMATE] showed a Ki [8] of 18 µM and a Ki [9] of 5.7 µM.

`CNC(=O)OCC[N+](C)(C)C` was tested, and the Ki [10] was 44 µM, the Ki [8] was 0.15 µM and the Ki [9] was 0.023 µM.

`CN(C)C[C@@H]1CNC(=O)O1` showed a Ki [1] greater than 100 µM, a Ki [2] of 94 µM and a Ki [3] greater than 100 µM. For the same molecule, the Ki [4] was greater than 100 µM, the Ki [5] was 0.452 µM and the Ki [6] was greater than 100 µM. For the same molecule, the Ki [7] was greater than 100 µM.

With `C[N+](C)(C)CCOC(N)=O` [CARBAMOYLCHOLINE] the Ki [10] was 66 µM.

Work on `CN1CCC[C@H]1[C@H]1COC(=O)N1` yielded a Ki [1] greater than 100 µM, a Ki [2] of 50 µM and a Ki [3] greater than 100 µM. The Ki [4] was greater than 100 µM, the Ki [5] was 14 µM and the Ki [6] was greater than 100 µM. For the same molecule, the Ki [7] was greater than 100 µM.
